Biological target: T1, s-PfDHODH (Plasmodium falciparum, UniProt Q08210)
T1 sequence (Q08210 158-569 limits assumed): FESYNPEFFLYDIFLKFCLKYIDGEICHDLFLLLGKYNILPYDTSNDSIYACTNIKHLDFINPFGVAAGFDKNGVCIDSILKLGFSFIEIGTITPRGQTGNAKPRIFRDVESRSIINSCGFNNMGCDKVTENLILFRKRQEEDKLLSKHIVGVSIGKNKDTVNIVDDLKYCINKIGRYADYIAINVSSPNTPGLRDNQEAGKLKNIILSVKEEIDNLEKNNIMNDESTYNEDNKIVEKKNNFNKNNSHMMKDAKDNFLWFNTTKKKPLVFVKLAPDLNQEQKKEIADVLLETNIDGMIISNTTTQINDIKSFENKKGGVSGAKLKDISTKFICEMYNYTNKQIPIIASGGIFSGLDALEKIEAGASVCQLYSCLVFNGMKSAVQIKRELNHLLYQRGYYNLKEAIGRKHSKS
Test: Inhibition of s-PfDHODH in vitro (Tres Cantos laboratory)
Settings: read-out: s-PfDHODH in vitro IC50; assayed at the Tres Cantos laboratory
Excerpt: The literature data set used to build our PfDHODH inhibition models was based on in vitro assays carried out using the truncated, soluble form of the enzyme introduced by Baldwin et al. [10].

IC50: 860 nM
SMILES: O=C(O)C(O)C(=O)O [CID 44,537,350]
